This passage reports MIC results from patent US20260191845A1, “PYRIDINE-2-THIOL 1-OXIDE DERIVATIVES AND THEIR USE FOR TREATMENT OF MAMMALIAN INFECTIONS CAUSED BY MYCOBACTERIUM OR FUNGI” (priority 2022, published 2026).

What is called MIC is the least concentration at which growth counts as inhibited.

In assay [1] the test system is IC2 M. tuberculosis MDR clinical isolate. The assay is described as follows: REMA MIC90, broad spectrum of microorganisms. The class given is cell-based. The note with it: Mycobacterium tuberculosis, read-out: MIC to Compound 2.
In assay [2] the test system is IC1 M. tuberculosis MDR clinical isolate. The assay is described as follows: REMA MIC90, broad spectrum of microorganisms. The note with it: Mycobacterium tuberculosis, read-out: MIC to Compound 2. The format is cell-based.

Each structure is given as a SMILES string.

As for `CCOC(=O)c1ccc([S-])[n+]([O-])c1.[Na+]` [Compound 2, Sodium 5-(ethoxycarbonyl)pyridine-2-thiolate 1-oxide], the MIC in assay [1] and in assay [2] was 25 µg/mL in each case.
